From patent publication US20090317497A1, “Compositions and methods for promoting brain and cardiovascular health, preventing and treating brain and cardiovascular disorders” (priority 2007, published 2009)

Legend:
[1] = system: apoptosis-induced nuclear DNA fragmentation in cerebral cortex; experiment: Apoptosis assay, TUNEL staining, Wistar (Example 7); assay type: in vivo, Wistar rats; settings: after 1 month of MCAO, doses of Table 14
Source text: TUNEL staining was used for detection of apoptosis-induced nuclear DNA fragmentation via fluorescence microscopy.
Apoptotic cells were identified by using TUNEL staining.

[2] = system: spontaneous hypertension rats (SHR) with stroke induced middle cerebral artery occlusion (MCAO); experiment: Chronic MCAO stroke study, SHR (Example 7); assay type: in vivo; settings: Braintone (500), Ginkgo 20, Aspirin 10, Losartan 1 mg/kg/day, means +/- SD, scale 0 to 5
[3] = system: apoptosis-induced nuclear DNA fragmentation in cerebral cortex; experiment: Apoptosis assay, TUNEL staining, SHR (Example 7); assay type: in vivo; settings: doses of Table 14
Source text: TUNEL staining was used for detection of apoptosis-induced nuclear DNA fragmentation via fluorescence microscopy. Apoptotic cells were identified by using TUNEL staining.

[4] = system: Wistar rats with stroke induced middle cerebral artery occlusion (MCAO); experiment: Chronic MCAO stroke study, Wistar (Example 7); assay type: in vivo; settings: Braintone 500 mg/kg, Ginkgo 20, Aspirin 10, Losartan 1 mg/kg/day, means +/- SD, scale 0 to 5
Method: (§1) 96 Wistar rats and 96 SHR, weighing 250-300 g, were randomly divided into eight treatment groups respectively (see Table 14), Remembrance (Formulation A) and other comparative drugs were dissolved in distilled water and administrated orally once daily for two months (Table 14: dosage of administration).
Oral administration of Remembrance/other treatments (2 months)→MACO→Continue the corresponding treatment after MACO (1 month)→Measurements
The differentiation of […] capillaries and evaluation of morphological changes after cerebral ischemia were performed using Hematoxylin and Eosin Staining. Random slides of the rat brains were used for the staining.

[5] = system: oxidized DNA base products; experiment: DNA damage, oxidized DNA base products by GC/MS, Wistar (Example 7); assay type: in vivo, Wistar rats; settings: stroke-induced, Aspirin 10, Losartan 1 mg/kg/day
Wistar Rats with MCAO = experiment: 2-week MCAO stroke study, Wistar (Example 4); assay type: in vivo
Method: (§2) Wistar and SHR rats were randomly divided into four treatment groups and one sham group (see Table 7 and 8).
(§3) The morphological changes were evaluated after cerebral ischemia. The brains were dipped in M-1 Embedding Matrix for frozen sectioning, frozen in liquid nitrogen and stored at −80 deg C. The cerebral sections were then cut from the middle part of the frozen brain at 20 um. 4 to 6 sections were obtained from each brain for HE staining. HE staining of sections was performed to differentiate capillaries, after which they were covered with crystal mount. Cerebral sections were examined under the microscope and photographed.

[6] = system: Spontaneous Hypertensive Rats (SHR) with MCAO; experiment: 2-week MCAO stroke study, SHR (Example 4); assay type: in vivo
Method: as §2, §3

BcL-xL [7] = experiment: Gene expression Bcl-xL, Wistar (Example 7); assay type: in vivo, Wistar rats; settings: Losartan 1 mg/kg/day, compared with vehicle group (p<0.01)
Method: as §1
(§4) Glyceraldehydes-3-[…] dehydrogenase (GAPDH) was used as the internal standard gene. Primers sequences of GAPDH, VEGF, eNOS, ACE, AT1, AT2, Fas, Bax, Bcl-xL and Bcl-xS were used in this study.

[8] = system: oxidized DNA base products; experiment: Evaluation of DNA damage in blood DNA by GC/MS (Example 5); assay type: in vivo, Wistar rats and SHR; settings: Stroke + treatment, doses of Table 9; mean ± S.D.; unit not given in Table 11 (Table 10: nmol/mg DNA)
Method: 60 Wistar rats and 60 SHR were divided into six treatment groups separately (excluding the vehicle group). The single blinded experiment was conducted with Formulation B and other drugs being administrated once daily orally (see Table 9). After a week treatment, Wistar rats underwent a MCAO procedure to induce stroke. Treatment was continued for another week after surgery before the rats were sacrificed by decapitation. DNA extraction and DNA base damage analysis was then performed. DNA was extracted from blood samples collected from different treatment groups of Wistar rats and SHR using the phenol-chloroform method. The DNA samples were then analyzed by GC/MS.

BcL-xS [9] = experiment: RT-PCR gene expression in left cortex after MCAO: BcL-xS (Example 6); assay type: in vivo, Wistar rats; settings: stroke operated, doses of Table 12; compared with stroke operated vehicle group (p<0.05)
Source text: (§5) The brains were collected for further gene expression studies. The cerebral left cortexes containing infarct area were separated.

Fas = experiment: RT-PCR gene expression in left cortex after MCAO: Fas (Example 6); assay type: in vivo, Wistar rats; settings: stroke-operated group, doses of Table 12; compared with stroke operated vehicle group
Source text: as §5

AT2 receptor = experiment: RT-PCR gene expression in left cortex after MCAO: AT2 (Example 6); assay type: in vivo, Wistar rats; settings: stroke operated groups, doses of Table 12; compared with stroke operated vehicle group (p<0.05)
Source text: as §5

BcL-xL [10] = experiment: RT-PCR gene expression in left cortex after MCAO: BcL-xL (Example 6); assay type: in vivo, Wistar rats; settings: stroke operated, doses of Table 12
Source text: as §5

Bax = experiment: RT-PCR gene expression in left cortex after MCAO: Bax (Example 6); assay type: in vivo, Wistar rats; settings: stroke-operated group, doses of Table 12; compared with stroke operated vehicle group (p<0.05)
Source text: as §5

Bcl-xS [11] = experiment: Gene expression Bcl-xS, SHR (Example 7); assay type: in vivo; settings: doses of Table 14, vs Vehicle group
Method: as §1, §4

[12] = Inhibition of Pyrogallol Red Bleaching by Hypochlorous Acid; assay type: biochemical; settings: 10 mg/ml; 125 uM HOCL; pH 7.4, 37 deg. C.; 542 nm
Method: Pyrogallol Red was dissolved in 100 mM buffer at 37 deg. C., pH 7.4, after which 125 uM HOCL was added and incubated with 10 mg/ml ascorbic acid and other select herbal extracts including two batches of Formulation B. The absorbance values of the mixtures in the presence and absence of the antioxidant were recorded by UV visible spectrophotometer at 542 nm.

Inhibition of ABTS Assay = assay type: biochemical; settings: 10 ul of 10 mg/ml in 990 ul ABTS reagent; 2 minutes; 734 nm
Method: 10 ul of 10 mg/ml of select herbal extracts and two batches of Formulation B were mixed with 990 ul of ABTS reagent and incubated for 2 minutes before the absorbance was measured by UV visible spectrophotometer at 734 nm.

[13] = MCAO, Formulation B 500 mg/kg/day, Losartan 1 mg/kg/day
[14] = MCAO, Formulation B 500 mg/kg/day, Losartan 1 mg/kg/day, day 13

Compound	amount of DNA damage compared to Remembrance 500 mg group [5]	2OH Adenine [8]	5(OH, Me) Uracil [8]	5CI Uracil [8]	5Formyl Uracil [8]	5OH Cytosine [8]	5OH Uracil [8]	5OH, Me Hydantoin [8]	8OH Adenine [8]	8OH Guanine [8]	FAPy Adenine [8]	FAPy Guanine [8]	Hypoxanthine [8]	Thymine Glycol (cis) [8]	Xanthine [8]	BcL-xS expression (BcL-xS [9])	Fas expression (Fas)	AT2 expression (AT2 receptor)	BcL-xL up or down regulation (BcL-xL [10])	Bax gene expression (Bax)	also measured
CC(=O)Oc1ccccc1C(=O)O [Aspirin]	higher amount of DNA damage																				apoptosis (TUNEL staining) in cerebral cortex [1]: reduction in apoptosis; Neurological score, 1 day after stroke [2]: 1.72 ± 1.73; Neurological score, 1 day before decapitation [2]: 1.54 ± 2.15; Neurological score, 15 days after stroke [2]: 0.63 ± 1.84; apoptosis (TUNEL staining) in cerebral cortex [3]: reduction in apoptosis; Neurological score, 1 day after stroke [4]: 1 ± 1.73; Neurological score, 1 day before decapitation [4]: 2 ± 2.74; Neurological score, 15 days after stroke [4]: 2 ± 2.45
CCCCc1nc(Cl)c(CO)n1Cc1ccc(-c2ccccc2-c2nn[nH]n2)cc1 [Losartan]	higher amount of DNA damage	0.02 ± 0.03	0.04 ± 0.03	0.02 ± 0.01	0.01 ± 0.01	0.01 ± 0.01	0.01 ± 0.01	0.10 ± 0.02	0.05 ± 0.04	0.13 ± 0.04	0.09 ± 0.03	0.03 ± 0.03	22.21 ± 8.01	2.20 ± 0.15	1.51 ± 0.32	significantly reduced expression	no significant effect	significantly reduced	did not have any significant effects	significant effect in down regulating	infarct volume (Wistar Rats with MCAO; [13]): 2.41%; mortality rate (Wistar Rats with MCAO; [14]): 0%; number of capillaries, HE staining (Wistar Rats with MCAO; after MCAO): 22 capillaries; infarct volume [6, 13]: 5.22%; mortality rate [6, 14]: 28.6%; number of capillaries, HE staining ([6]; after MCAO): 15 capillaries; Bcl-xL expression (BcL-xL [7]): significant fold decrease; Bcl-xS expression (Bcl-xS [11]): up-regulating effects
CCOC(=O)[C@H](CCc1ccccc1)N[C@@H](C)C(=O)N1[C@H](C(=O)O)C[C@@H]2CCC[C@@H]21 [Ramipril]		0.03 ± 0.02	0.03 ± 0.00	0.01 ± 0.00	0.50 ± 0.03	0.05 ± 0.01	0.06 ± 0.00	0.04 ± 0.02	0.03 ± 0.01	0.13 ± 0.07	0.08 ± 0.03	0.03 ± 0.01	18.12 ± 11.18	0.68 ± 0.31	2.61 ± 1.64	significantly reduced expression	no significant effect	significantly reduced	did not have any significant effects	significant effect in down regulating	
O=C1O[C@H]([C@@H](O)CO)C(O)=C1O [ascorbic acid]																					pyrogallol red bleaching inhibition [12]: ~100%; scavenging effect of ABTS (Inhibition of ABTS Assay): 100%
